Data as given in patent US20120172228A1, “ALCOHOL ALKOXYLATES AS ADJUVANTS FOR AGROCHEMICAL FORMULATIONS” (SYNGENTA CROP PROTECTION, LLC, priority 2009, published 2012).

Legend:
Format in all cases: in vivo
[1] = system: lolium perenne (LOLPE), alopecurius myosuirides (ALOMY), avena fatua (AVEFA); assay: Adjuvant with herbicide pinoxaden, mean across three weed species (Example 22); conditions: pinoxaden 7.5, 11.25 or 15 g/ha; Sample 13 0.2%, TEHP 0.5%; 14 and 21 days
Method: In this example Sample 13 from Table 1 was compared to the oil adjuvant blend Turbocharge™. The herbicide fomesafen was applied to the weed species xanthium strumarium (XANST), setaria viridis (SETVI), abutilon theophrasti (ABUTH), and chenopodium album (CHEAL) at rates of 60 or 120 grams per hectare, using a laboratory track sprayer. Each experiment was replicated four times and the percentage damage to the weeds was assessed visually at time periods of 7, 14 and 21 days after application. Each adjuvant was applied at a rate of 0.5% of the volume of the spray water. Four effects were evaluated: pesticide rate (2 levels), adjuvant type (two levels), weed species (four levels) and days after application (three levels). A standard simple linear model was constructed to judge the significance of these effects. […] A model was fitted using multiple linear regression using the statistics package JMP (SAS group). The effect of each adjuvant was pulled out from the model and the least significant differences evaluated using a Student's t method. […]
(§1) In this example the response of the butylene oxide adjuvant 13 of Table 1 was measured at an application rate of 0.2% of the volume of the spray solution used. […] In each case the experiments were replicated four times and the percentage damage to the weeds was assessed visually at time periods of 14 and 21 days after application.

avena fatua (AVEFA) = assay: Adjuvant with herbicide pinoxaden on AVEFA; conditions: 14 and 21 days
Method: (§2) In this example Sample 13 from Table 1 was compared to the oil adjuvant blend Turbocharge™. The herbicide fomesafen was applied to the weed species xanthium strumarium (XANST), setaria viridis (SETVI), abutilon theophrasti (ABUTH), and chenopodium album (CHEAL) at rates of 60 or 120 grams per hectare, using a laboratory track sprayer. Each experiment was replicated four times and the percentage damage to the weeds was assessed visually at time periods of 7, 14 and 21 days after application. Each adjuvant was applied at a rate of 0.5% of the volume of the spray water. Four effects were evaluated: pesticide rate (2 levels), adjuvant type (two levels), weed species (four levels) and days after application (three levels). […] The effect of each adjuvant was pulled out from the model and the least significant differences evaluated using a Student's t method. […]
as §1, with “responses” for “response”, “adjuvants 13, 17, 19, 21, 22 and 23 were” for “butylene oxide adjuvant 13 of Table 1 was”
In this example the response of butylene oxide sample 27 of Table 1 was measured at an application rate of 0.2% of the volume of the spray solution used. […]

[2] = system: chenopodium album (CHEAL); assay: Adjuvant with herbicide nicosulfuron on CHEAL; conditions: nicosulfuron 30 or 60 g/ha; adjuvants 0.2% of spray water; 14 and 21 days after application
Method: as §2
In this example the butylene oxide adjuvant Sample 13 of Table 1 was compared to the commercial oil adjuvant blend Atplus™411F. […] Each experiment was replicated four times and the percentage damage to the weeds was assessed visually at time periods of 14 and 21 days after application. […]
In this example the responses of the butylene oxide adjuvants 13, 17, 19, 21, 22 and 23 of Table 1 were measured at an application rate of 0.2% of the volume of the spray solution used. […]

Question: What does the source list for `CCCCC(CC)COP(=O)(OCC(CC)CCCC)OCC(CC)CCCC` (stereo not shown) [TEHP, tris 2-ethylhexyl phosphate]?
Answer: mean efficacy (percentage damage to the weeds), All weeds [1]: 59.91; A %; mean efficacy (percentage damage to the weeds), AVEFA (avena fatua (AVEFA); pinoxaden 7.5, 11.25 or 15 g/ha, Sample 13 0.2%, TEHP 0.5%): 78.33; A %; mean efficacy (percentage damage to the weeds), AVEFA (avena fatua (AVEFA); pinoxaden 7.5 or 15 g/ha, butylene oxide adjuvants 0.2%, TEHP 0.5% v/v): 73.75; AB %; mean efficacy (percentage damage to the weeds), CHEAL [2]: 68.33; B %
